Test results as given in patent US10323020B2, “Substituted piperidinyl tetrahydroquinolines” (Bayer Pharma Aktiengesellschaft, priority 2013, dated 2019).

Key:
[1] = molecular target: recombinant human α2C receptor (Homo sapiens (Human), UniProt P18825); assay: Antagonism against the adrenoreceptor α2C (luminescence, noradrenaline-stimulated CHO cells); type: cell-based; conditions: noradrenaline 20 nM; CHO cell line with Gαqi3 and mtOb
Procedure: Antagonism against the adrenoreceptor α1A was tested using a recombinant human α1A receptor CHO cell line which additionally also recombinantly expresses mtAeq (mitochondrial aequorin). Antagonism against the adrenoreceptor α2A was tested using a recombinant human α2A-Gα16 receptor fusion protein CHO cell line (PerkinElmer Life Sciences) which additionally also recombinantly expresses mtAeq. Antagonism against the adrenoreceptor α2B was tested using a recombinant human α2B receptor CHO cell line (PerkinElmer Life Sciences) which additionally also recombinantly expresses mtAeq. Antagonism against the adrenoreceptor α2C was tested using a recombinant human α2C receptor CHO cell line which additionally also recombinantly expresses a chimaric G protein (Gαqi3) and mtOb (mitochondrial obelin).
The cells were cultivated at 37° C. and 5% CO2 in Dulbecco's modified Eagle's Medium/NUT mix F12 with L-glutamine which additionally contains 10% (v/v) inactivated foetal calf serum, 1 mM sodium pyruvate, 0.9 mM sodium bicarbonate, 50 U/ml penicillin, 50 μg/ml streptomycin, 2.5 μg/ml amphotericin B and 1 mg/ml Geneticin. The cells were passaged with enzyme-free Hank's-based cell dissociation buffer. All cell culture reagents used were from Invitrogen (Carlsbad, USA).
Luminescence measurements were carried out on white 384-well microtitre plates. 2000 cells/well were plated in a volume of 25 μl and cultivated for one day at 30° C. and 5% CO2 in cell culture medium with coelenterazine (α2A and α2B: 5 μg/ml; α1a/c and α2C: 2.5 μg/ml). Serial dilutions of the test substances (10 μl) were added to the cells. After 5 minutes, noradrenaline was added to the cells (35 μl; final concentrations: 20 nM (α1a/c and α2C) or 200 nM (α2A and α2B)), and the emitted light was measured for 50 seconds using a CCD (charge-coupled device) camera (Hamamatsu Corporation, Shizuoka, Japan) in a light-tight box. The test substances were tested up to a maximum concentration of 10 μM. The IC50 values were calculated from the appropriate dose-response curves.

[2] = system: diabetic ZDF fa/fa animals; assay: Measurement of blood flow and blood pressure in rats (femoral flow), ZDF rat; type: in vivo; conditions: for Change in the femoral flow in %: ZDF rat (n = 3), steady state 32 min, mean
Procedure: (§1) Wistar rats (Hsd Cpb:Wu) of a weight of 250-350 g or ZDF rats (ZDF/Crl-Lepr fa/fa) of a weight of 330-520 g were anesthetized using 2.5% isoflurane in an oxygen/laughing gas mixture (40:60). To determine the blood flow in the carotid artery and the femoral artery, the anesthetized rat was brought into a supine position, and the left carotid artery and the right femoral artery are then carefully exposed. Blood flow was measured by placing flow probes (Transonic Flowprobe) at the vessels. By introducing a PE50 artery catheter into the left femoral artery, blood pressure and heart rate were determined (Transducer Ref. 5203660: from Braun CH). The substances were administered as a bole injection or a continuous infusion via a venous catheter in the left femoral vein.
(§2) Following the preparation of the animals, there was a 5 min baseline interval. Infusion of the AR alpha2C receptor antagonist was then started. In the steady state (32 min after the start of the experiment), the femoral flow was determined in relation (% difference) to the initial flow.
(§3) At the same time, no changes in blood pressure and heart rate were measured. Placebo: 10% ethanol/40% PEG400/50% NaCl.

Wistar rat = assay: Measurement of blood flow and blood pressure in rats (femoral flow), Wistar rat; type: in vivo
Procedure: as §1, §2, §3

[3] = system: diabetic (ZDFfa/fa) and healthy rats (Wistar); assay: Assay of perfusion-enhancing substances (microcirculation), laser doppler at the paw; type: in vivo, rat
Source text: In diabetic (ZDFfa/fa) and healthy rats (Wistar), a laser doppler probe was fastened under anaesthesia conditions (isoflurane anaesthesia) at the sole of the paw for measuring cutaneous microcirculation. The test animals were once treated orally with the test substances. During the experiment, microperfusion and temperature of the lower extremities were documented continuously. Here, a temperature-sensitive laser doppler probe (Periflux, O2C) was fastened with adhesive to the paws of the animals, allowing the measurement of microperfusion and skin temperature. The microcirculation measurement values were measured on both paws 30 min after oral administration of the test substance. […] Also stated is the MED for the significant increase of skin temperature (ttest).
Microcirculation data for adrenoreceptor α2C receptor antagonist of the compound of Example 8 and for the comparative substance ORM12741, an AR α2c receptor antagonist from Orion, are shown in Table 3: […]

[4] = system: conscious female Wistar rats; assay: Radiotelemetric measurement of blood pressure and heart rate of conscious rats; type: in vivo, rat
Source text: A commercially available telemetry system from Data Sciences International DSI, USA, was employed for the measurements on conscious rats described below. The system consists of 3 main components: (1) implantable transmitters (Physiotel® telemetry transmitter), (2) receivers (Physiotel® receiver), which are linked via a multiplexer (DSI Data Exchange Matrix) to a (3) data acquisition computer. The telemetry system makes it possible to continuously record blood pressure, heart rate and body motion of conscious animals in their usual habitat.
The studies were conducted on adult female Wistar rats with a body weight of >200 g. After transmitter implantation, the experimental animals were housed singly in type III Makrolon® cages. They had free access to standard feed and water. The day/night rhythm in the test laboratory was set by changing the illumination of the room.
The telemetry transmitters used (PA-C40, DSI) were surgically implanted under aseptic conditions in the experimental animals at least 14 days before the first experimental use.
For the implantation, the fasted animals were anaesthetized with isoflurane (IsoFlo®, Abbott, initiation 5%, maintenance 2%) and shaved and disinfected over a large area of their abdomens. […]
Each of the instrumented rats living in the system was assigned a separate receiving antenna (RPC-1 Receiver, DSI). […] The signals emitted were detected online by a data acquisition system (Dataquest™ A.R.T. for Windows, DSI) and processed accordingly.
In the standard procedure, the following were measured for 10-second periods in each case: (1) systolic blood pressure (SBP), (2) diastolic blood pressure (DBP), (3) mean arterial pressure (MAP) and (4) heart rate (HR) and (5) activity (ACT). These parameters were measured over 24 hours after administration.
The acquisition of measurements was repeated under computer control at 5-minute intervals. The source data obtained as absolute values were corrected in the diagram with the currently measured barometric pressure (Ambient Pressure Reference Monitor, APR-1, DSI). […]

[5] = during infusion, up to 1 μg/kg/min

Chain of recombinant human α2C receptor (P18825 whole entry, the tested form may be a part): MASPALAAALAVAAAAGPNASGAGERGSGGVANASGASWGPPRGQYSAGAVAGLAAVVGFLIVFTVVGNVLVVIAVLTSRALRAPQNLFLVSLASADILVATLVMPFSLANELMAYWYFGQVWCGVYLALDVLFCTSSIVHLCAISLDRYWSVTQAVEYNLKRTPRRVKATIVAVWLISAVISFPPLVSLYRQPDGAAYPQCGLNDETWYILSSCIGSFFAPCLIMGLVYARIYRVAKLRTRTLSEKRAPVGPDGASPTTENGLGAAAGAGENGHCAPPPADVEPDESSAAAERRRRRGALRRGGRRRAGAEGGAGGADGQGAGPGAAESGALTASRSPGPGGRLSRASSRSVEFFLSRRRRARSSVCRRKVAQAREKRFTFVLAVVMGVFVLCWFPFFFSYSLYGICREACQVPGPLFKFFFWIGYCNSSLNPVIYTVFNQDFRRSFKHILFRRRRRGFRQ

O=C(c1cnc(N2CC3(COC3)C2)nc1)N1CCC(N2CCc3ccccc3C2)CC1 [Example 8, [4-(3,4-Dihydroisoquinolin-2(1H)-yl)piperidin-1-yl][2-(2-oxa-6-azaspiro[3.3]hept-6-yl)pyrimidin-5-yl]methanone]
IC50 [1]: 0.023 µM | Change in the femoral flow in % ([2]; 0.1 μg/kg/min infusion): 12.3% | Change in the femoral flow in % ([2]; 0.3 μg/kg/min infusion): 65.0% | Change in the femoral flow in % ([2]; 1 μg/kg/min infusion): 131.3% | femoral flow (in words) ([2]; diabetic ZDF fa/fa animals, doses of 0.1, 0.3 and 1 μg/kg): dose-dependent increase in femoral flow | Change in the femoral flow in % (Wistar rat; Wistar rat (n = 7), 1 μg/kg/min infusion, steady state 32 min, mean): −6.7 (n = 7) % | femoral flow (in words) (Wistar rat; Wistar rat, up to a dose of 1 μg/kg/min): no increase in femoral flow | blood pressure (in words) (Wistar rat; [5]): no changes | heart rate (in words) (Wistar rat; [5]): no changes | factor by which microcirculation is improved at the MED compared to placebo ([3]; single oral dose at MED, 30 min after administration): 1.8 x | MED microcirculation ([3]; single oral dose, measured 30 min after administration, significant vs placebo): 0.03 mg/kg | MED skin temperature ([3]; single oral dose, significant increase of skin temperature (ttest)): 0.01 mg/kg | heart rate ([4]; oral 3 and 10 mg/kg): slight transient increase in the heart rate | haemodynamic effects (blood pressure, heart rate) ([4]; up to an oral dose of 1 mg/kg): no haemodynamic effects
